Measurements published in US20250051275A1, “PYRROLE DERIVATIVE OR PHARMACEUTICALLY OR SITOLOGICALLY ACCEPTABLE SALTS THEREOF, AND COMPOSITION FOR PREVENTION, AMELIORATION OR TREATMENT OF GASTROINTESTINAL DISORDERS COMPRISING SAME AS ACTIVE INGREDIENT” (HANA PHARM CO., LTD., priority 2021, published 2025).
Where two headings read alike, the source gives them in different places.

Columns and labels:
[1] = Storage stability (related substance identification test); type: physicochemical; conditions: for storage stability: stored at −2 to 8° C., in % (unit assumed)
Text: An attempt was made to evaluate the storage stability over time of the compound of Example 7 of the present invention and the compound of Comparative Example 1 (which is the deuterium-unsubstituted form of the compound of Example 7) depending on the presence of deuterium substitution.

[2] = tested on: human gastric cancer cells (AGS Cells); test: MTS assay, inhibition of proliferation of human gastric cancer cells (AGS Cells); type: cell-based; conditions: 48 hours
Protocol: To examine the effect of inhibiting the proliferation of the compounds indicated in the examples of the present invention on human gastric cancer cells (AGS Cells), MTS Assay experiments were in vitro performed. AGS cells were cultured in a 5% CO2 incubator at 37° C. by using RPMI 1640 medium containing 1% penicillin-streptomycin and 10% fetal bovine serum. The cells in culture were separated with using 0.25% Trypsin-0.02% EDTA every 3 to 4 days and subcultured.
For the experiment, the cultured cells were treated with 0.25% Trypsin-0.02% EDTA solution, the suspended cells were centrifuged at 1,200 rpm for 5 minutes, the supernatant was discarded, a culture medium was added thereto, and a cell suspension was made with the culture medium. Using a hemocytometer, 10,000 cells per well were dispensed into 96-well plates and cultured. After 24 hours, when the cells attached to the plate, the culture medium was discarded, and the cells were treated with new culture media prepared by concentration (test concentrations: 500 μm, 250 μm, 125 μm, 63 μm, 31 μm, 16 μm, 8 μm, 4 μm, and 2 μm) and cultured in a CO2 incubator for 48 hours. After treating with an MTS solution, the cells were incubated in a CO2 incubator for 1 hour, and the absorbance was measured at 490 nm by using a microplate reader device. The cell proliferation inhibition rate was expressed as IC50, which is 50% inhibition of cell proliferation, using GraphPad Prism 5.
In Table 2 below, the IC50 value is indicated as “+++” for 0 to 50 μM, “++” for 51 to 100 μM, and “+” for 101 to 400 μM.

[3] = molecular target: proton pump (H+/K+-ATPase) (Sus scrofa (Pig), UniProt P19156); test: Inhibitory activity on proton pump (H+/K+-ATPase) activity; type: biochemical; conditions: porcine gastric mucosal microsomes, 5 mM KCl, pH 6.4
Protocol: The compounds indicated in the above examples were tested for their inhibitory activity on proton pump (H+/K+-ATPase) activity as follows by applying the method disclosed in the literature. According to the methods of Nobuyuki Takahashi and Yukinori Take [J Pharmacol Exp Ther. 2018 February; 364(2):275-286], the gastric mucosal microsome fraction was isolated from the porcine stomach. The stomach isolated from the pig was washed first with tap water, only the fundus was cut, and then washed (a second time) with cold PBS. The gastric mucosa was separated by scraping, homogenized with 250 mM sucrose solution, and centrifuged at 20,000 g at 4° C. for 30 minutes. Only the supernatant was centrifuged at 115,000 g at 4° C. for 30 minutes, and the precipitate was suspended in 250 mM sucrose solution, added to cover with 7% Ficoll solution, and centrifuged at 135,000 g at 4° C. for 60 minutes. The microsome fraction formed at the interface was recovered and suspended in 250 mM sucrose solution, and centrifuged at 135,000 g, 4° C. for 60 minutes, and the precipitate was dissolved in 0.9% NaCl. The isolated gastric mucosal microsome fraction was quantified by using the Bicinchoninic Acid (BCA) kit (Thermo).
60 μl of enzyme reaction solution (a test compound at a given concentration, […] of gastric mucosal microsomes, 3 mM of MgSO4, 5 mM of KCl, 40 mM of Tris-HCl pH 6.4, and 0.5 mM of adenosine triphosphate) was added to each well of a 96-well plate and reacted at 37° C. for 60 minutes, and 30 μl of 10% SIDS was added to stop the enzyme reaction. 200 μl of detection solution (in which 10% L-ascorbic acid with pH 5.0 was mixed with 35 mM of ammonium molybdate tetrahydrate/15 mM of zinc acetate with pH 5.0 at the ratio of 4:1) was added and reacted at 37° C. for 30 minutes, and the absorbance value was measured at 750 nm by using a microplate reader (MULTISKAN GO, Thermo). The inhibition rate of proton pump activity was expressed as I050, which is 50% inhibition of enzyme activity, by using GraphPad Prism 5. In Table 1 below, an I050 value of 100 nM or less is indicated by +++, an I050 value of 101 to 200 nM is indicated by ++, and an I050 value of above 200 nM is indicated by +.

[4] = Homo sapiens, read-out: Proliferation inhibitory effect of gastric cancer cells (IC50)
[5] = Homo sapiens, read-out: Proliferation inhibitory effect of gastric cancer cells (IC50, μM), class symbol
[6] = read-out: Proton pump inhibitory activity (IC50)
[7] = read-out: Proton pump inhibitory activity (IC50, nM), class symbol

Chain of proton pump (H+/K+-ATPase) (P19156 2-1034): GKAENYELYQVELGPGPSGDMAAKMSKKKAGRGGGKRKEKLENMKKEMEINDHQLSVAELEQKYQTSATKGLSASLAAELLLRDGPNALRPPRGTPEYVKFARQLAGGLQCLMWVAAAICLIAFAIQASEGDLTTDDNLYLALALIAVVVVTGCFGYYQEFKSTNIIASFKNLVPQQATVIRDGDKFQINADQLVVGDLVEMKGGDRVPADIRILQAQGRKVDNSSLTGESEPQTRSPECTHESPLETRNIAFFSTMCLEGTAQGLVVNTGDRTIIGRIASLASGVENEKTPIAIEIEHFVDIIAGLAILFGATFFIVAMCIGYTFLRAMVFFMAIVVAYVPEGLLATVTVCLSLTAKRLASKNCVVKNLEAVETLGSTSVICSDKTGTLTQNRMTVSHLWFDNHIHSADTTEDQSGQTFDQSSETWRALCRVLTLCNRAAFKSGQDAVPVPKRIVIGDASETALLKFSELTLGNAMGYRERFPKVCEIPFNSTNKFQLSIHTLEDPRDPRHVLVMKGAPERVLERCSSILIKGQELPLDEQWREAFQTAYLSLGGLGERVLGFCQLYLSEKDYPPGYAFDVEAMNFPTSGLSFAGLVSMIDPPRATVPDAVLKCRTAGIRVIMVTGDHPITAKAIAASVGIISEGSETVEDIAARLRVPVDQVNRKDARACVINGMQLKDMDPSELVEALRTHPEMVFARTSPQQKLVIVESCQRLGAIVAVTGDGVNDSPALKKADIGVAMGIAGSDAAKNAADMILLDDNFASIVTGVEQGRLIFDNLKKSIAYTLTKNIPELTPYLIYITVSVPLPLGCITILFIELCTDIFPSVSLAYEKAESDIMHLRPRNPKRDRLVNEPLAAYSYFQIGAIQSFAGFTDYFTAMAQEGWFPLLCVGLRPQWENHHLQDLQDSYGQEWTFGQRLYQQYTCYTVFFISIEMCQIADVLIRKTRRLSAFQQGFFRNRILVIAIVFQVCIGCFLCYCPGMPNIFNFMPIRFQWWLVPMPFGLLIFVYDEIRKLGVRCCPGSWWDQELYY
Chain of proton pump (H+/K+-ATPase) (P18434 whole entry partner): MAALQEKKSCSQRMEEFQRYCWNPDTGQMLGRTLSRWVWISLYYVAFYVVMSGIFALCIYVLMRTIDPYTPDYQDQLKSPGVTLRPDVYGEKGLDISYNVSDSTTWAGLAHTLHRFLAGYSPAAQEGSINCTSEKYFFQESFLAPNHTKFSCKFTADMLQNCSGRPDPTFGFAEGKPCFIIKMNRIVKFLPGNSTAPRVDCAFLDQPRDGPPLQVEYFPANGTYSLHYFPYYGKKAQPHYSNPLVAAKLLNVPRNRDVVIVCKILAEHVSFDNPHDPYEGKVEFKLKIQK

Row | Structure (SMILES) | IC50 [2, 4] [µM] | IC50 [2, 5] [µM] | IC50 [3, 6] [nM] | IC50 [3, 7] [nM] | other results
1 | CNCc1cc(-c2ccccc2F)n(S(=O)(=O)c2ccc(F)cc2)c1 [Comparative Example 1, reference compound] | – | – | – | – | storage stability, Results ([1]; stored at −2 to 8° C. for 3 months): Unstable; storage stability ([1]; 1st week): 90.61; storage stability ([1]; 2nd week): 81.40; storage stability ([1]; 3 months): 53.8; storage stability ([1]; 3rd week): 76.47; storage stability ([1]; 4th week): 70.39; storage stability ([1]; Initial): 97.99
2 | COc1ccc2nc([S@@+]([O-])Cc3ncc(C)c(OC)c3C)[nH]c2c1 [Control Drug 2 (Esomeprazole), 6-methoxy-2-[(S)-(4-methoxy-3,5-dimethylpyridin-2-yl)methylsulfinyl]-1H-benzimidazole, reference compound] | 194 | 101 to 400 | – | – | –
3 | N.N.[Cl][Pt][Cl] [Control Drug 3 (Cisplatin), diamminedichloridoplatinum(II), reference compound] | – | – | – | – | IC50 ([2]; read-out: Proliferation inhibitory effect of gastric cancer cells (IC50)): 19.2 µM; IC50 ([2]; read-out: Proliferation inhibitory effect of gastric cancer cells (IC50, μM), class symbol): < 50 µM
4 | [2H]C([2H])([2H])NCc1cc(-c2ccccc2F)n(S(=O)(=O)c2ccc(C)cc2)c1 [Example 2, N-((5-(2-fluorophenyl)-1-tosyl-1H-pyrrol-3-yl)methyl)methan-d3-amine] | 17.5 | < 50 | 68 | ≤ 100 | –
5 | [2H]C([2H])([2H])NCc1cc(-c2ccccc2F)n(S(=O)(=O)c2ccc(OC)cc2)c1 [Example 3, N-((5-(2-fluorophenyl)-1-((4-methoxyphenyl)sulfonyl)-1H-pyrrol-3-yl)methyl)methan-d3-amine] | 3.5 | < 50 | 48 | ≤ 100 | –
6 | [2H]C([2H])([2H])NCc1cc(-c2ccccc2F)n(S(=O)(=O)c2ccc(C#N)cc2)c1 [Example 4, 4-((2-(2-fluorophenyl)-4-(((methyl-d3)amino)methyl)-1H-pyrrol-1-yl)sulfonyl)benzonitrile] | 32.7 | < 50 | 90 | ≤ 100 | –
7 | [2H]C([2H])([2H])NCc1cc(-c2ccccc2F)n(S(=O)(=O)c2ccc(Br)cc2)c1 [Example 5, N-((1-((4-bromophenyl)sulfonyl)-5-(2-fluorophenyl)-1H-pyrrol-3-yl)methyl)methan-d3-amine] | – | – | 36 | ≤ 100 | –
8 | [2H]C([2H])([2H])NCc1cc(-c2ccccc2F)n(S(=O)(=O)c2ccc(Cl)cc2)c1 [Example 6, N-((1-((4-chlorophenyl)sulfonyl)-5-(2-fluorophenyl)-1H-pyrrol-3-yl)methyl)methan-d3-amine] | 21.7 | < 50 | 26 | ≤ 100 | –
9 | [2H]C([2H])([2H])NCc1cc(-c2ccccc2F)n(S(=O)(=O)c2ccc(OC(F)(F)F)cc2)c1 [Example 8, N-((5-(2-fluorophenyl)-1-((4-(trifluoromethoxy)phenyl)sulfonyl)-1H-pyrrol-3-yl)methyl)methan-d3-amine] | 12.2 | < 50 | 51 | ≤ 100 | –
10 | [2H]C([2H])([2H])NCc1cc(-c2cccc(F)c2)n(S(=O)(=O)c2ccc(Cl)cc2)c1 [Example 10, N-((1-((4-chlorophenyl)sulfonyl)-5-(3-fluorophenyl)-1H-pyrrol-3-yl)methyl)methan-d3-amine] | – | – | 60 | ≤ 100 | –
11 | [2H]C([2H])([2H])NCc1cc(-c2cccc(F)c2)n(S(=O)(=O)c2ccc(OC)cc2)c1 [Example 11, N-((5-(3-fluorophenyl)-1-((4-methoxyphenyl)sulfonyl)-1H-pyrrol-3-yl)methyl)methan-d3-amine] | – | – | 76 | ≤ 100 | –
12 | [2H]C([2H])([2H])NCc1cc(-c2ccc(F)cc2F)n(S(=O)(=O)c2ccc(Br)cc2)c1 [Example 13, N-((1-((4-bromophenyl)sulfonyl)-5-(2,4-difluorophenyl)-1H-pyrrol-3-yl)methyl)methan-d3-amine] | 14.2 | < 50 | – | – | –
13 | [2H]C([2H])([2H])NCc1cc(-c2ccc(F)cc2F)n(S(=O)(=O)c2ccc(C)cc2)c1 [Example 16, N-((5-(2,4-difluorophenyl)-1-tosyl-1H-pyrrol-3-yl)methyl)methane-d3-amine] | – | – | 82 | ≤ 100 | –
14 | [2H]C([2H])([2H])NCc1cc(-c2ccc(F)cc2F)n(S(=O)(=O)c2ccc(OC)cc2)c1 [Example 17, N-((5-(2,4-difluorophenyl)-1-((4-methoxyphenyl)sulfonyl)-1H-pyrrol-3-yl)methyl)methan-d3-amine] | – | – | 84 | ≤ 100 | –
15 | [2H]C([2H])([2H])NCc1cc(-c2cccc(F)c2)n(S(=O)(=O)c2ccc(C#N)cc2)c1 [Example 22, 4-((2-(3-fluorophenyl)-4-(((methyl-d3)amino)methyl)-1H-pyrrol-1-yl)sulfonyl)benzonitrile] | 22.6 | < 50 | – | – | –
16 | [2H]C([2H])([2H])NCc1cc(-c2ccc(F)cc2)n(S(=O)(=O)c2ccc(F)cc2)c1 [Example 24, N-((5-(4-fluorophenyl)-1-((4-fluorophenyl)sulfonyl)-1H-pyrrol-3-yl)methyl)methan-d3-amine] | 41.5 | < 50 | – | – | –
17 | [2H]C([2H])([2H])NCc1cc(-c2ccc(F)cc2)n(S(=O)(=O)c2ccc(Br)cc2)c1 [Example 25, N-((1-((4-bromophenyl)sulfonyl)-5-(4-fluorophenyl)-1H-pyrrol-3-yl)methyl)methan-d3-amine] | 24.8 | < 50 | – | – | –
18 | [2H]C([2H])([2H])NCc1cc(-c2ccc(F)cc2)n(S(=O)(=O)c2ccc(Cl)cc2)c1 [Example 26, N-((1-((4-chlorophenyl)sulfonyl)-5-(4-fluorophenyl)-1H-pyrrol-3-yl)methyl)methan-d3-amine] | 13.2 | < 50 | – | – | –
19 | [2H]C([2H])([2H])NCc1cn(S(=O)(=O)c2ccc(OC)nc2)c(-c2ccc(F)cc2F)c1OC [Example 37, N-((5-(2,4-difluorophenyl)-4-methoxy-1-((6-methoxypyridin-3-yl)sulfonyl)-1H-pyrrol-3-yl)methyl) methane-d3-amine] | – | – | 88 | ≤ 100 | –
20 | [2H]C([2H])([2H])NCc1cn(S(=O)(=O)c2cccnc2)c(-c2c(F)cc(F)cc2F)c1OC [Example 39, N-((4-methoxy-1-(pyridin-3-ylsulfonyl)-5-(2,4,6-trifluorophenyl)-1H-pyrrol-3-yl)methyl)methan-d3-amine] | – | – | 38 | ≤ 100 | –
21 | [2H]C([2H])([2H])NCc1cn(S(=O)(=O)c2ccc(OC)nc2)c(-c2c(F)cc(F)cc2F)c1OC [Example 40, N-((4-methoxy-1-((6-methoxypyridin-3-yl)sulfonyl)-5-(2,4,6-trifluorophenyl)-1H-pyrrol-3-yl)methyl)methane-d3-amine] | – | – | 64 | ≤ 100 | –
